The target of experiment [1] is T1, P. vivax MSP142 (Plasmodium vivax, UniProt Q02569, A1444G/T1362K/T1451N).
T1 sequence (Q02569 1325-1704 T1362K/A1444G/T1451N): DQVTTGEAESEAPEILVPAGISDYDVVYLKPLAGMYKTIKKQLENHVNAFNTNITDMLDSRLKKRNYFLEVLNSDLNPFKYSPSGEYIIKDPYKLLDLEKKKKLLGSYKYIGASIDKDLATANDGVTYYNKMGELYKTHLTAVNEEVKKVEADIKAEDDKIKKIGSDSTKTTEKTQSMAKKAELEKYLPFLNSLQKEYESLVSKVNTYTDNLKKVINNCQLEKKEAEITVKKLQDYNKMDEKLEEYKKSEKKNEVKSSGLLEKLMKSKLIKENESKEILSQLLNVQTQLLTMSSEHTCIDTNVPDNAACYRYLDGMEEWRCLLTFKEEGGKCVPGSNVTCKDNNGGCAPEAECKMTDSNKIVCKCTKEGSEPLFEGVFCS
Kind of experiment: isothermal titration calorimetry. The class given is binding. The text has this: (§1) The MSP142 protein from P. vivax was cloned into plasmid jmp28, a modified pET-28 vector that encodes an N-terminal peptide MHHHHHHIEGRWIL immediately upstream of the inserted sequence. P. vivax (Belem strain) DNA was used as a template for PCR based cloning. The sequence of the expressed protein (following the vector encoded N-terminal peptide) corresponded to residues Asp 1325 to Ser 1704, Accession number A39401.
The protein was expressed in BL21(DE3)pLysS cells by induction of a culture at an OD600 of 0.6-0.8 with IPTG at a final concentration of 1 mM. The cells were induced for 3 h at 37° C. and then harvested by centrifugation. The cells were lysed using the Bugbuster protein extraction reagent (Novagen), after centrifugation of the cell lysate, the pellet containing the MSP142 was dissolved in 6M Guanidine-HCl, 100 mM Na2HPO4, 10 mM Tris-HCl, pH 8.0. This was applied to a Ni-NTA column, washed with 10 column volumes of the loading buffer, followed by 6 column volumes of 8 M Urea, 100 mM Na2HPO4, 10 mM Tris-HCl, at pH 7.0, and 6 column volumes at pH 6.1. The protein was eluted in 3 column volumes 8 M Urea, 100 mM Na2HPO4, 10 mM Tris-HCl, pH 4.3. […]
In addition to the fluorimetry, isothermal titration calorimetry (ITC) was performed using a Microcal omega VP-ITC (MicroCal Inc., Northampton, Mass.). […] The heat of dilution of suramin into buffer was determined in control experiments. […]
A general note: Isothermal titration calorimetry measures the heat released or taken up as one component is titrated into another.

Experiment [2] relates to P. vivax MSP142. Kind of experiment: binding of suramin by fluorimetry.
Text: as §1
The protein was expressed in BL21(DE3)pLysS cells by induction of a culture at an OD600 of 0.6-0.8 with IPTG at a final concentration of 1 mM. The cells were induced for 3 h at 37° C. and then harvested by centrifugation. […]
The intrinsic fluorescence of suramin was used to determine its capacity to bind to the various MSP1-derived proteins. The fluorescence was measured using a Perkin Elmer LS-3B or a Spex Fluoro Max 2 fluorimeter. Suramin was excited at a wavelength of 315 or 330 nm with 2.5 nm resolution, the emission spectra were measured at wavelengths ranging from 350-450 nm. Suramin and the MSP1 proteins were diluted in 20 mM NaH2PO4, 150 mM NaCl at pH 7.2 and analysed at 10 or 20° C. […] The Kd for the suramin-MSP1 binding was determined from three independent experiments.

Experiment [3] concerns the target T2, MSP142 (Plasmodium falciparum, UniProt Q8I0U8). Kind of experiment: inhibition of suramin binding (fluorescence, 384-well plate). The following applies: λex 320 nm/λem 405 nm. The method, then:
MSP142 (0.1 mg/ml), 10 μM suramin analogue and 2 μM suramin were combined in a 384-well black polypropylene low binding plate (total reaction volume 100 μL). Fluorescence was read at λex 320 nm/λem 405 nm on a BMG Polarstar fluorimeter. Readings were taken before, and 1 hour after, addition of suramin.

Experiment [4] has as its target T2, MSP142. Kind of experiment: titration of fluorescent analogues against MSP142. The class given is binding. The procedure: Analogues 258, 261, 264 and 266 were titrated against (a) PBS buffer only, (b) 0.1 mg/ml bovine serum albumin in PBS or (c) 0.1 mg/ml MSP142 in PBS. Fluorescence observed was compared to naphthalenetrisulphate (non-specific reagent) and suramin.

Molecules are shown by their SMILES.

The Kd is the equilibrium constant for the complex coming apart. Higher therefore signals a looser complex. As a reminder, the EC50 is the concentration needed to bring the measured effect to its halfway point. High values mean a need for much substance, low ones an effect from little substance. On P. vivax MSP142 [1], `Cc1ccc(C(=O)Nc2ccc(S(=O)(=O)O)c3cc(S(=O)(=O)O)cc(S(=O)(=O)O)c23)cc1NC(=O)c1cccc(NC(=O)Nc2cccc(C(=O)Nc3cc(C(=O)Nc4ccc(S(=O)(=O)O)c5cc(S(=O)(=O)O)cc(S(=O)(=O)O)c45)ccc3C)c2)c1` [suramin] yielded a dissociation constant (Kd) of 0.3 ± 0.1 µM. At P. vivax MSP142 [1] (ITC, 25° C.), this molecule gave an AH value of 11 ± 1 kcal/mol. Also, in the experiment with P. vivax MSP142 [2], the “enhancement of intrinsic suramin fluorescence on binding” value was “large binding-induced enhancements”. Further, the “signal to noise ratio of fluorescence signal” value on MSP142 [3] was 1.8. In addition, on MSP142 [4], the EC50 was approximately 2 µM. The “fluorescence in the presence of MSP142” value at MSP142 [4] (0.1 mg/ml MSP142 in PBS, 0.01-200 μM) is on record as “became fluorescent in the presence of MSP142 specifically”.

The values are drawn from patent US20070003987A1, “Screening method for substance binding to merozoite surface protein-1/42” (priority 2003, published 2007).
